Data from patent US9079913B2, “Spiro-oxindole MDM2 antagonists” (The Regents of the University of Michigan, priority 2009, dated 2015).
Like-named read-outs stand apart in the source and are kept apart here.

Key:
[1] = Microsomal stability study, negative control incubation; assay type: in vitro ADME
[2] = In vitro microsomal stability, dog; assay type: in vitro ADME; conditions: for Microsomal stability, % remaining: Dog microsomes
[3] = In vitro microsomal stability, human; assay type: in vitro ADME; conditions: for Microsomal stability, % remaining: Human microsomes; for microsomal stability (in words) / % of compound remaining when incubated in human liver microsomes with NADPH: human liver microsomes
[4] = In vitro microsomal stability, rat; assay type: in vitro ADME; conditions: for Microsomal stability, % remaining: Rat microsomes; for microsomal stability (in words) / % of compound remaining when incubated in rat liver microsomes with NADPH: rat liver microsomes
[5] = system: cancer cell lines with wild-type p53 / mutated or deleted p53 (ATCC); assay: Cell growth assay (WST-8), other cancer cell lines; assay type: cell-based
[6] = system: Isogenic HCT-116 colon cancer cell lines; assay: cells; assay type: cell-based; conditions: cell growth;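 note: cells grown in 96-well plates in McCoy's 5A medium with 10% FBS, exposed to compound for 4 days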
Description: Cells were seeded in 96-well flat bottom cell culture plates at a density of 2−3×10^3 cells/well with compounds and incubated for 4 days.

[7] = molecular target: recombinant human His-tagged MDM2 protein (residues 1-118) (Homo sapiens (Human), UniProt Q00987); assay: Fluorescence-polarization MDM2 binding assay;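 note: fluorescence polarization read after three hours of incubation in potassium phosphate buffer containing bovine gamma globulin and Triton X-100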
recombinant human His-tagged MDM2 protein (residues 1-118), sequence (Q00987 1-118): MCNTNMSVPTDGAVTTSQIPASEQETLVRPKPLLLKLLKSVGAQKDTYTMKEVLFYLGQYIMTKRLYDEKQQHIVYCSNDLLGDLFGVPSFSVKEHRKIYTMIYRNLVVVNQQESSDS
Description: The assay was performed in the buffer: 100 mM potassium phosphate, pH 7.5; 100 μg/mL bovine gamma globulin; 0.02% sodium azide, 0.01% Triton X-100) and the polarization values were measured after 3 h of incubation using an ULTRA READER (Tecan U.S. Inc., Research Triangle Park, N.C.). […] The Kd value was calculated using the equation: Kd value=IC50−L0/2.
The polarization values were measured after 3 h of incubation. […] Curve fitting was performed using [sequence] PRISM software (GraphPad Software, Inc., San Diego, Calif.). […] Compounds shown in Tables 19A-D as the free base were tested either as the free base or as the CF3CO2H (TFA) or HCl salt.

[8] = Pharmacokinetic studies in rats; assay type: in vivo, rat
Description: Pharmacokinetic studies on MDM2 inhibitors were carried out in rat. For comparison, the MDM2 inhibitor, AT-219, was also studied.

CC(C)(C)C[C@H]1N[C@@H](C(=O)NCC[C@H](O)CO)[C@H](c2cccc(Cl)c2F)[C@@]12C(=O)Nc1cc(Cl)ccc12 [MI-147, reference compound]
Microsomal stability, % remaining ([1]; 0 min): 100.00% | Microsomal stability, % remaining ([1]; 5 min): 94.73% | Microsomal stability, % remaining ([1]; 10 min): 90.77% | Microsomal stability, % remaining ([1]; 15 min): 93.43% | Microsomal stability, % remaining ([1]; 30 min): 94.14% | Microsomal stability, % remaining ([1]; 45 min): 91.07% | Microsomal stability, % remaining ([1]; 60 min): 85.38% | Microsomal stability, % remaining ([2]; 0 min): 100.00% | Microsomal stability, % remaining ([2]; 5 min): 77.84% | Microsomal stability, % remaining ([2]; 10 min): 47.98% | Microsomal stability, % remaining ([2]; 15 min): 44.83% | Microsomal stability, % remaining ([2]; 30 min): 21.52% | Microsomal stability, % remaining ([2]; 45 min): 17.08% | Microsomal stability, % remaining ([2]; 60 min): 12.15% | microsomal stability (in words) ([2]; dog microsomes): metabolized fairly rapidly | Microsomal stability, % remaining ([3]; 0 min): 100.00% | Microsomal stability, % remaining ([3]; 5 min): 78.23% | Microsomal stability, % remaining ([3]; 10 min): 58.01% | Microsomal stability, % remaining ([3]; 15 min): 41.59% | Microsomal stability, % remaining ([3]; 30 min): 19.67% | Microsomal stability, % remaining ([3]; 45 min): 10.81% | Microsomal stability, % remaining ([3]; 60 min): 7.18% | microsomal stability (in words) [3]: metabolized fairly rapidly | Microsomal stability, % remaining ([4]; 0 min): 100.00% | Microsomal stability, % remaining ([4]; 5 min): 68.05% | Microsomal stability, % remaining ([4]; 10 min): 31.04% | Microsomal stability, % remaining ([4]; 15 min): 16.85% | Microsomal stability, % remaining ([4]; 30 min): 6.18% | Microsomal stability, % remaining ([4]; 45 min): 4.40% | Microsomal stability, % remaining ([4]; 60 min): 3.43% | microsomal stability (in words) [4]: metabolized fairly rapidly

CC(C)(C)C[C@H]1N[C@@H](C(=O)NC2CCC(NS(C)(=O)=O)CC2)[C@H](c2cccc(Cl)c2F)[C@@]12C(=O)Nc1cc(Cl)ccc12 (stereo partly drawn) [MI-771]
microsomal stability (in words) [3]: very poor microsomal stability | t1/2 ([3]; human liver microsomes with NADPH): 3.12 min | % of compound remaining when incubated in human liver microsomes with NADPH ([3]; 0 min): 100.00% | % of compound remaining when incubated in human liver microsomes with NADPH ([3]; 5 min): 27.98% | % of compound remaining when incubated in human liver microsomes with NADPH ([3]; 10 min): 10.82% | % of compound remaining when incubated in human liver microsomes with NADPH ([3]; 15 min): 4.30% | % of compound remaining when incubated in human liver microsomes with NADPH ([3]; 30 min): 0.82% | % of compound remaining when incubated in human liver microsomes with NADPH ([3]; 45 min): 0.00% | % of compound remaining when incubated in human liver microsomes with NADPH ([3]; 60 min): 0.00% | microsomal stability (in words) [4]: very poor microsomal stability | t1/2 ([4]; rat liver microsomes with NADPH): 2.69 min | % of compound remaining when incubated in rat liver microsomes with NADPH ([4]; 0 min): 100.00% | % of compound remaining when incubated in rat liver microsomes with NADPH ([4]; 5 min): 20.48% | % of compound remaining when incubated in rat liver microsomes with NADPH ([4]; 10 min): 7.59% | % of compound remaining when incubated in rat liver microsomes with NADPH ([4]; 15 min): 3.57% | % of compound remaining when incubated in rat liver microsomes with NADPH ([4]; 30 min): 1.22% | % of compound remaining when incubated in rat liver microsomes with NADPH ([4]; 45 min): 0.66% | % of compound remaining when incubated in rat liver microsomes with NADPH ([4]; 60 min): 0.46% | IC50 ([5]; Homo sapiens, LNCaP, Table 19A, LNCAP cells, p53 wild-type, cell growth, read-out: LNCAP (p53 wild-type) IC50): 1.1 ± 0.1 µM | IC50 ([5]; Homo sapiens, SJSA-1, Table 19A, SJSA-1 cells, p53 wild-type, cell growth, read-out: SJSA-1 (p53 wild-type) IC50): 1.2 ± 0.3 µM | IC50 ([5]; Table 19A, PC-3 cells, deleted p53, cell growth, read-out: PC-3 (deleted p53) IC50): 13.7 ± 4.4 µM | cell growth inhibition (in words) ([5]; cancer cell lines with wild-type p53): effectively inhibit cell growth | IC50 ([6]; Homo sapiens, HCT-116, read-out: HCT-116 (p53 wild-type) IC50, Table 19A, HCT-116 p53 wild-type): 1 ± 0.3 µM | IC50 ([6]; read-out: HCT-116 (p53-/-) IC50, Table 19A, HCT-116 p53-/-): 12 ± 1.1 µM | IC50 ([7]; Table 19A, FP binding assay, read-out: MDM2 IC50): < 1 µM | binding to MDM2 (in words) ([7]; human MDM2 protein): high affinities | CLz ([8]; rat, IV, 5 mg/kg, plasma, parent compound): 36.7 mL/min/kg | Vd ([8]; rat, plasma, iv, 5 mg/kg, rat, IV, 5 mg/kg, plasma, parent compound, read-out: Vz): 7.1 L/kg | pharmacokinetic profile (in words) ([8]; rats, intravenous and oral routes of dosing): very poor pharmacokinetic profile
